Consider 23 compounds from US7563813B2, “Iminothiazolidinone derivatives as SFRP-1 antagonists” (Wyeth, priority 2005, dated 2009).

This series addresses T1, hSFRP-1 (Homo sapiens, UniProt Q8N474).
T1 construct: expressed in transfected cells; host or cells: U2OS osteosarcoma cells (ATCC, HTB 96), transient co-transfection with Wnt 3, Wnt3A or Wnt 1, 16x TCF-tk-Luciferase reporter and CMV-beta-gal
T1 sequence (Q8N474 32-314): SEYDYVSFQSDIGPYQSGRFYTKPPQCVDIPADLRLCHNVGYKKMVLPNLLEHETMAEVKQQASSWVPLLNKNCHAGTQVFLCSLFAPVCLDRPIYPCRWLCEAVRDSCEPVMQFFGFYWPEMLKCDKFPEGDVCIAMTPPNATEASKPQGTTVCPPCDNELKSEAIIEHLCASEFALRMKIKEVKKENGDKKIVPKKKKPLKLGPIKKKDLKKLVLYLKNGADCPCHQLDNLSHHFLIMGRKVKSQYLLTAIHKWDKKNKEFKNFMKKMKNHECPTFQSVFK
Put plainly: Cell-Based Assay for In Vitro Measurement of SFRP-1/SARP2 Antagonist Activity (U2OS cells, 16x TCF-tk-Luciferase reporter, Wnt + hSFRP-1 co-transfection). Particulars: initial single dose screening at 10 μM; for Ratio: ratio not defined. The protocol: Cell-Based Assay for In Vitro Measurement of SFRP-1/SARP2 Antagonist Activity
The following cell-based assay can be used to identify inhibitors of SFRP-1.
The osteosarcoma cell line, U2OS (ATCC, HTB 96), was passaged twice a week with growth medium (McCoy's SA medium containing 10% (v/v) fetal calf serum, 2 mM GlutaMAX-1, and 1% (v/v) Penicillin-Streptomycin). The cells were maintained in vented flasks at 37° C. inside a 5% CO2/95% humidified air incubator. One day prior to transfection, the cells were plated with growth medium at 25,000 cells/well into 96-well plates and incubated at 37° C. overnight.
The growth medium was removed, and the cells were washed once with OPTIMEM I (Gibco-BRL) medium (100 μl/well) to remove the serum and antibiotics. The wash medium was removed, and the cells were re-fed with OPTI-MEM I medium (100 μl/well). For each well of cells to be transfected, the following DNA's were diluted together in 25 μl OPTI-MEM I medium: 0.1 μg 16× TCF-tk-Luciferase reporter, 0.02 μg Wnt 3, Wnt3A, Wnt 1 or empty vector (Upstate Biotechnology), 0.075 μg hSFRP-1 or empty vector (pcDNA3.1, Invitrogen), and 0.025 μg CMV-®gal (Clonetech). For each well of cells to be transfected, 1 μl of Lipofectamine 2000 reagent (Invitrogen) was diluted in 25 μl OPTI-MEM I medium and incubated at room temperature for 5 minutes. The diluted DNA's were then combined with the diluted Lipofectamine 2000 (LF2000), and the mixture was incubated at room temperature for 20 minutes. Fifty μl of the DNA-LF 2000 mixture was added to each well, and the plate(s) were incubated at 37° C. in a 5% CO2/95% humidified air incubator for 4 hours. The cells were washed once with 150 μl/well of experimental medium (phenol red-free RPMI Medium 1640 containing 2% fetal bovine serum, 2 mM GlutaMAX-1, and 1% Penicillin-Streptomycin). Finally, the cells were treated overnight at 37° C. with 200 μl/well of experimental medium containing either vehicle (typically DMSO) or diluted compound in replicates of 8 wells/compound.
Initial single dose screening of test compounds was done at 10 μM.
Dose-response experiments were initially performed with the compounds in log increases from 1-10,000 nM. From these dose-response curves, EC50 values were generated.
After treatment, the cells were washed twice with 150 μl/well of PBS without calcium or magnesium and were lysed with 50 μl/well of 1× cell culture lysis reagent (Promega Corporation) on a shaker at room temperature for 30 minutes. Thirty μl aliquots of the cell lysates were transferred to 96-well luminometer plates, and luciferase activity was measured in a MicroLumat PLUS luminometer (EG&G Berthold), or a Victor (PerkinElmer Life Sciences) using […] of luciferase substrate (Promega Corporation). Following the injection of substrate, luciferase activity was measured for 10 seconds after a 1.6 second delay. Similarly, 10 μl aliquots of the cell lysates were transferred to separate 96-well luminometer plates, and 50 μl of Galacton chemiluminescent substrate (Tropix) was added to each well. The plates were covered and incubated on a rotary shaker at room temperature for one hour. ®gal activity was measured in a MicroLumat PLUS luminometer or Victor using 100 μl/well of Light Emission Accelerator (Tropix). Following the injection of the accelerator, ®gal activity was measured for 10 seconds after a 1.6 second delay. The luciferase and ®gal activity data were transferred from the luminometer to a PC and analyzed using the SAS/Excel program. After the luciferase activity was normalized to ®gal, the SAS/Excel program was used to determine the mean and standard deviation of each treatment, to analyze the data for statistical significance, and to determine EC50 values.
As an alternative to co-transfection in a 96 well plate, the U2OS cells were transfected in T225 flasks and the transfected cells were frozen. The frozen cells were thawed and plated on a 96 well plate and the assay was carried out as detailed above. […]
On the technique in general: A reporter such as luciferase makes a cellular process visible.

Where [1] appears, read: luciferase reporter activity, fold induction over SFRP-1 control.

SMILES strings stand for the structures.

As usually defined, the fold induction is the ratio of treated to control signal. For `N=C1NC(=O)C(CC(=O)NCc2cccc(C(F)(F)F)c2)S1` (stereo not shown) [Example 19, 2-(2-imino-4-oxo-1,3-thiazolidin-5-yl)-N-[3-(trifluoromethyl)benzyl]acetamide], the Ratio stood at 0.9. For the same compound, the fold induction at 10 µM under setting [1] came to 1.1.
Regarding `CCOC(=O)c1c(-c2ccccc2)csc1NC(=O)CC1SC(=N)NC1=O` (stereo not shown) [Example 45, ethyl 2-{[(2-imino-4-oxo-1,3-thiazolidin-5-yl)acetyl]amino}-4-phenyIthiophene-3-carboxylate], the Ratio is 1.0. In addition, under setting [1], the “Fold induction with SFRP-1” value came out at 1.1 fold.
As for `CCOC(=O)c1c(NC(=O)CC2SC(=N)NC2=O)sc(Br)c1CNc1ccc(F)cc1` (stereo not shown) [Example 62, ethyl 5-bromo-4-{[(4-fluorophenyl)amino]methyl}-2-{[(2-imino-4-oxo-1,3-thiazolidin-5-yl)acetyl]amino}thiophene-3-carboxylate], the Ratio is listed as 2.2. Further, the fold induction at 10 µM under setting [1] is 2.
`N=C1NC(=O)C(CC(=O)Nc2cccc(C(N)=O)c2)S1` (stereo not shown) [Example 24, 3-{[(2-imino-4-oxo-1,3-thiazolidin-5-yl)acetyl]amino}benzamide]: the Ratio turned out to be 1.0. For the same compound, the fold induction at 10 µM under setting [1] came to 1.2.
For the compound `CCOC(=O)c1cc(CC)sc1NC(=O)CC1SC(=N)NC1=O` (stereo not shown) [Example 33, ethyl 5-ethyl-2-{[(2-imino-4-oxo-1,3-thiazolidin-5-yl)acetyl]amino}thiophene-3-carboxylate], the Ratio worked out at 1.7. Further, the fold induction at 10 µM under setting [1] worked out at 1.5.
Consider `N=C1NC(=O)C(CC(=O)Nc2sc3c(c2C(N)=O)CCCC3)S1` (stereo not shown) [Example 32, 2-{[(2-imino-4-oxo-1,3-thiazolidin-5-yl)acetyl]amino}-4,5,6,7-tetrahydro-1-benzothiophene-3-carboxamide], for which the Ratio is listed as 1.1. Also, under setting [1], the fold induction at 10 µM amounted to 1.
The matching figures for `N=C1NC(=O)C(CC(=O)Nc2ccc(Cl)cc2Cl)S1` (stereo not shown) [Example 7, N-(2,4-dichlorophenyl)-2-(2-imino-4-oxo-1,3-thiazolidin-5-yl)acetamide]: 1.0 and 1.
Consider `N=C1NC(=O)C(CC(=O)Nc2cccc(Cl)c2Cl)S1` (stereo not shown) [Example 28, N-(2,3-dichlorophenyl)-2-(2-imino-4-oxo-1,3-thiazolidin-5-yl)acetamide], for which the Ratio is listed as 1.0. In addition, under setting [1], the fold induction at 10 µM was 1.2.
For `CCOC(=O)c1c(NC(=O)CC2SC(N)=NC2=O)sc(C)c1C` (stereo not shown) [Example 1, Ethyl 2-{[(2-amino-4-oxo-4,5-dihydro-1,3-thiazol-5-yl)acetyl]amino}-4,5-dimethylthiophene-3-carboxylate], the Ratio is on record as 2.5. Also, the fold induction at 10 µM under setting [1] stood at 2.5.
As for `N=C1NC(=O)C(CC(=O)NCc2ccccc2Cl)S1` (stereo not shown) [Example 23, N-(2-chlorobenzyl)-2-(2-imino-4-oxo-1,3-thiazolidin-5-yl)acetamide], the Ratio is reported as 1.0. The fold induction at 10 µM under setting [1] came to 1.2.
For `N=C1NC(=O)C(CC(=O)Nc2cccc(Cl)c2)S1` (stereo not shown) [Example 10, N-(3-chlorophenyl)-2-(2-imino-4-oxo-1,3-thiazolidin-5-yl)acetamide], in that order: 2.2 and 2.2.
`COC(=O)c1ccccc1NC(=O)CC1SC(=N)NC1=O` (stereo not shown) [Example 50, methyl 2-{[(2-imino-4-oxo-1,3-thiazolidin-5-yl)acetyl]amino}benzoate]: the Ratio worked out at 1.0. Besides, the fold induction at 10 µM under setting [1] worked out at 1.1.
`CCOC(=O)c1c(NC(=O)CC2SC(=N)NC2=O)sc(Br)c1CNC1CCCC1` (stereo not shown) [Example 63, ethyl 5-bromo-4-[(cyclopentylamino)methyl]-2-{[(2-imino-4-oxo-1,3-thiazolidin-5-yl)acetyl]amino}thiophene-3-carboxylate]: the Ratio is recorded as 1.1. Further, the fold induction at 10 µM under setting [1] was found to be 1.5.
The matching figures for `COC(=O)c1sc(C(C)(C)C)cc1NC(=O)CC1SC(=N)NC1=O` (stereo not shown) [Example 42, methyl 5-tert-butyl-3-{[(2-imino-4-oxo-1,3-thiazolidin-5-yl)acetyl]amino}thiophene-2-carboxylate]: 1.7 and 1.5.
For `COC(=O)c1ccsc1NC(=O)CC1SC(=N)NC1=O` (stereo not shown) [Example 34, methyl 2-{[(2-imino-4-oxo-1,3-thiazolidin-5-yl)acetyl]amino}thiophene-3-carboxylate], the Ratio turned out to be 1.3. The fold induction at 10 µM under setting [1] was 1.2.
Turning to `CC(=O)Nc1cccc(NC(=O)CC2SC(=N)NC2=O)c1` (stereo not shown) [Example 5, N-[3-(acetylamino)phenyl]-2-(2-imino-4-oxo-1,3-thiazolidin-5-yl)acetamide], the Ratio is on record as 1.2. Further, under setting [1], the fold induction at 10 µM is 1.3.
In the case of `CC(C)(C)OC(=O)c1cc(-c2ccccc2)sc1NC(=O)CC1SC(=N)NC1=O` (stereo not shown) [Example 55, tert-butyl 2-{[(2-imino-4-oxo-1,3-thiazolidin-5-yl)acetyl]amino}-5-phenylthiophene-3-carboxylate], the Ratio stood at 0.9. Under setting [1], the fold induction at 10 µM was 1.2.
As to `CCOC(=O)c1c(NC(=O)CC2SC(=N)NC2=O)sc(Br)c1CBr` (stereo not shown) [Example 59, Ethyl 5-bromo-4-(bromomethyl)-2-{[(2-imino-4-oxo-1,3-thiazolidin-5-yl)acetyl]amino}thiophene-3-carboxylate], the Ratio is reported as 1.4. Also, the fold induction at 10 µM under setting [1] amounted to 1.1.
Turning to `COC(=O)c1cc(-c2ccc(Cl)cc2)sc1NC(=O)CC1SC(=N)NC1=O` (stereo not shown) [Example 57, methyl 5-(4-chlorophenyl)-2-{[(2-imino-4-oxo-1,3-thiazolidin-5-yl)acetyl]amino}thiophene-3-carboxylate], the Ratio amounted to 0.8. The fold induction at 10 µM under setting [1] worked out at 0.9.
With `N#Cc1c(NC(=O)CC2SC(=N)NC2=O)sc2c1CCCC2` (stereo not shown) [Example 49, N-(3-cyano-4,5,6,7-tetrahydro-1-benzothien-2-yl)-2-(2-imino-4-oxo-1,3-thiazolidin-5-yl)acetamide], the Ratio came to 1.2. For the same compound, the fold induction at 10 µM under setting [1] came to 1.6.
For `N=C1NC(=O)C(CC(=O)Nc2ccc(F)c(Cl)c2)S1` (stereo not shown) [Example 11, N-(3-chloro-4-fluorophenyl)-2-(2-imino-4-oxo-1,3-thiazolidin-5-yl)acetamide], the Ratio amounted to 1.7. In addition, under setting [1], the fold induction at 10 µM was 1.9.
Turning to `CCOC(=O)c1c(NC(=O)CC2SC(=N)NC2=O)sc(Br)c1C` (stereo not shown) [Example 54, Ethyl 5-bromo-2-{[(2-imino-4-oxo-1,3-thiazolidin-5-yl)acetyl]amino}-4-methylthiophene-3-carboxylate], the Ratio was determined as 2.6. For the same compound, under setting [1], the fold induction at 10 µM stood at 2.6.
Turning to `N=C1NC(=O)C(CC(=O)NCc2ccc(C(F)(F)F)cc2)S1` (stereo not shown) [Example 12, 2-(2-imino-4-oxo-1,3-thiazolidin-5-yl)-N-[4-(trifluoromethyl)benzyl]acetamide], the Ratio worked out at 1.0. In addition, the fold induction at 10 µM under setting [1] came to 1.1.
